Experimental data published in US8937039B2, “Peptide-based peroxidase inhibitors and methods of using same” (The Medical College of Wisconsin, Inc., priority 2009, dated 2015).
pIC50: −log10 of the molar value. “Also recorded” adds a separate entry of the source. Residues, ends and D or L forms follow the SMILES beside them.

Key:
lung cancer mice = experiment: BHT-treated lung cancer mice (BALF activities, tumor number); assay type: in vivo, mouse
Experimental: Inhibiting MPO decreases PMN degranulation in lung cancer mice. PMNs are considered to play a causal role in initiating tumor formation. Effects of KYC on PMN recruitment and tumor formation in lung cancer mice were determined. Briefly, mice were treated with BHT (single dose: 300 mg/kg) and KYC (0.3 mg/kg/d).

MPO [1] = target: T1, MPO (Homo sapiens, UniProt P05164); experiment: MPO-mediated LDL malondialdehyde (MDA) formation; assay type: biochemical; set-up: purchased Lee Biosolutions (St. Louis, Mo.); details: increasing concentrations; 37° C., 4 h
T1 sequence (P05164 49-745): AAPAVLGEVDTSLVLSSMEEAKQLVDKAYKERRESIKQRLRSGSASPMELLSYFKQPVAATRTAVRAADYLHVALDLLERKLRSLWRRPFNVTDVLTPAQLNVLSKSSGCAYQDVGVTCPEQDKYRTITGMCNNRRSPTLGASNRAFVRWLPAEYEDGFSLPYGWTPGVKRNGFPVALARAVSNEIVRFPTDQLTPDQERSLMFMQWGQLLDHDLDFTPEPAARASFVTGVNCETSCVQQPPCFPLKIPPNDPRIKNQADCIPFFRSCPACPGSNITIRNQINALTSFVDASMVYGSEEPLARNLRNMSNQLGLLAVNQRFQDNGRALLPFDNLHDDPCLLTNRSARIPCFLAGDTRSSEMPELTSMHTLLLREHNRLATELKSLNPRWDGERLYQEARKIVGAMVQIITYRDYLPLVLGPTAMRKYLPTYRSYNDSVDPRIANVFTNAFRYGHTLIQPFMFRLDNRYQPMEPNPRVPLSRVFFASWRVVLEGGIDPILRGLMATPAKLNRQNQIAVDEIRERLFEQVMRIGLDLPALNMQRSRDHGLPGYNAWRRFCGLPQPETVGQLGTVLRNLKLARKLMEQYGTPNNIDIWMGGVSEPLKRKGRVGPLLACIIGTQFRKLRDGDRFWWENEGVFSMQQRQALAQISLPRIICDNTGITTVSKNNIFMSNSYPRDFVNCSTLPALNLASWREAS
Experimental: MPO-mediated LDL Malondialdehyde (MDA) Formation: Reaction mixtures contained LDL (0.5 mg/mL), NaNO2 (50 μM), H2O2 (50 μM), MPO (50 nM) and increasing concentrations of KYC in a phosphate buffer (100 mM, pH 7.4) containing DTPA (100 μM). After incubation at 37° C. for 4 h, the reactions were stopped by addition of catalase (2,000 units/mL). The formation of MDA was determined according to a published procedure. Briefly, incubation mixtures (containing 25 mM BHT) were adjusted to pH 1.5 and incubated at 60° C. for 80 min to hydrolyze the Schiff Bases formed from MDA and protein. The samples were mixed with 3-fold volume of N-methyl-2-phenylindole (13.4 mM in acetonitrile/methanol (3:1)). After centrifugation (13000 g, 5 min) 330 μL of the supernatants were mixed with 57.5 μL of concentrated HCl and incubated at 45° C. for another 60 min. Finally, after centrifugation (13000 g, 5 min), total MDA in the samples was determined from the absorbance at 586 nm using a UV-Vis spectrophotometer (Agilent Model 8453).

MPO [2] = target: T1, MPO; experiment: MPO-catalyzed HOCl production (taurine/TMB assay); assay type: biochemical; set-up: purchased Lee Biosolutions (St. Louis, Mo.)
Experimental: MPO-mediated HOCl Production. MPO (20 nM) was incubated with H2O2 (50 μM), NaCl (150 mM), taurine (5 mM) and increasing concentrations of KYC in phosphate buffer (100 mM, pH 7.4) which also contained diethylene triamine pentaacetic acid (DTPA, 100 μM) to prevent non-specific, divalent metal cation oxidation for 30 min. Reactions were halted by addition of catalase. Chlorotaurine was quantified using the 3,3-,5,5-tetramethylbenzidine (TMB) assay. Briefly, 400 μL of reaction solution was mixed with 100 μL of 2 mM TMB, 100 μM NaI containing 10% dimethylformamide (DMF) in 400 mM acetate buffer (pH 5.4). After 5 min, absorbance (650 nm) was recorded on a UV/Vis spectrophotometer (Agilent Model 8453).
MPO-catalyzed HOCl Production: MPO (20 nM) was incubated with H2O2 (50 μM), NaCl (150 mM), taurine (5 mM) and increasing concentrations of KYC in a phosphate buffer (100 mM, pH 7.4) containing diethylene triamine pentaacetic acid (DTPA, 100 μM) to prevent non-specific, divalent metal cation oxidation for 30 min. Reactions were halted by addition of catalase (2,000 units/mL). Chlorotaurine was quantified using the TMB assay (66). Briefly, 400 μL of reaction solution was mixed with 100 μL of 2 mM TMB, 100 μM NaI containing 10% dimethylformamide (DMF) in 400 mM acetate buffer (pH 5.4). After 5 min, absorbance (650 nm) was recorded on a UV/Vis spectrophotometer (Agilent Model 8453).

[3] = BHT 300 mg/kg single dose, KYC 0.3 mg/kg/d, after 3 days

## CC(=O)N[C@@H](CCCCN)C(=O)N[C@@H](Cc1ccc(O)cc1)C(=O)N[C@@H](CS)C(N)=O [KYC, N-acetyl Lysyltyrosylcysteine Amide] (Ac-Lys-Tyr-Cys-NH2)
Lung cancer mice; 6 weeks of KYC treatment, p=0.02
  Decrease of the number of tumors vs untreated mice: ~50%
Lung cancer mice; [3]
  Elastase activity in BALF (in words): significantly decreased
  MPO activity in BALF (in words): significantly decreased
  PMN number in BALF (in words): did not reduce
MPO [1]
  MPO-mediated MDA formation in LDL (in words): dose-dependently inhibited
MPO [2]; 12.5 μM
  Effect on MPO HOCl production at equimolar concentration (in words): comparable to that of tryptophan; also recorded: significantly more effective
MPO [2]; 25 μM peptide
  MPO-dependent HOCl production at 25 μM (in words): completely inhibited; also recorded: completely ablated
MPO [2]; MPO 20 nM, H2O2 50 μM, NaCl 150 mM, taurine 5 mM, 30 min, read-out: IC50 for inhibition of MPO-catalyzed HOCl formation
  pIC50: ~5.15
